Assay results as given in patent US4683230A, “BMY-28121, a new antitumor antibiotic” (Bristol-Myers Company, priority 1985, dated 1987).
Converted amounts (≈) assume the structure as drawn.

Assays:
[1] = test system: Clostridium perfringens A22787; assay: microbe, parasite or virus in culture; type: cell-based
P388 leukemia = details: mouse, in vivo
[2] = Acute toxicity in mice, single intraperitoneal administration; set-up: species or system mice (male ddY strain); details: mouse, in vivo, ip, male ddY mice
anaerobic bacteria = type: cell-based
B16 melanoma = assay: Antitumor activity in mice, melanotic melanoma B16; details: ip, once daily for 9 days, circled = significant antitumor effect

For `CC1(C)S[C@@H]2[C@H](NC(=O)[C@H](N)c3ccccc3)C(=O)N2[C@H]1C(=O)O` [Ampicillin], which MIC [1] is on record?
Its MIC is 0.1 µg/mL (≈ 0.286 µM).

Which “antitumor activity against experimental tumors in mice, eg. P388 leukemia” value (P388 leukemia) does the source give for `COc1cccc2c1N[C@H](O)[C@@H]1CC(/C=C/C(=O)N(C)C)=CN1C2=O` [BMY-28121A] here?
Its value is “marked antitumor activity”.

For `COc1cccc2c1N[C@H](OC)[C@@H]1CC(/C=C/C(=O)N(C)C)=CN1C2=O` [BMY-28121B, 1,10,11,11a-tetrahydro-9,11-dimethoxy-5H-pyrrolo[2,1-c][1,4]benzodiazepine-5-one-2-N,N-dimethylacrylamide], which LD50 [2] is on record?
Its LD50 is 0.81 mg/kg.

And the “solubility in ethyl acetate and ethyl ether” value?
The value was “slightly soluble”.

And the “solubility in methanol, ethanol, chloroform, pyridine, and dimethylformamide” value?
Its value is “readily soluble”.

What about the solubility in n-hexane of the same compound?
Its solubility in n-hexane is “practically insoluble”.

And the solubility in water?
Its solubility in water is “practically insoluble”.

And the “antitumor activity against experimental tumors in mice, eg. P388 leukemia” value (P388 leukemia)?
Its value is “marked antitumor activity”.

What about the “inhibition of anaerobic bacteria” value (anaerobic bacteria) of the same compound?
Its value is “inhibited all”.

Which results are given for `CO[C@@]12[C@H](COC(N)=O)C3=C(C(=O)C(C)=C(N)C3=O)N1C[C@@H]1N[C@@H]12` [Mitomycin C]?
T/C % of MST (B16 melanoma; 0.13 mg/kg/day): 124%; T/C % of MST (B16 melanoma; 0.25 mg/kg/day): 136%
